Results taken from US8084254B2, “Human blood brain barrier model” (Institut National de la Sante et de la Recherche Medicale …, priority 2004, dated 2011).

What was measured:
[1] = brain perfusion of adult rats; reported values (Cisternino et al.); cited from earlier work
hCMEC/D3 cells = tested on: hCMEC/D3 cells
Description: HCMEC/D3 cells were seeded on the filters at a density of 2×10^5 cells/cm^2 in normal culture medium (EGM-2). […] All plates were kept at 37° C. […] PS (clearance) is the permeability surface area product and s is the surface area of the filter (1 cm^2).

hCMEC/D3 monolayers = assay: Transendothelial electrical resistance (TEER) of hCMEC/D3 monolayers; format: cell-based, human; conditions: treatment of hCMEC/D3 monolayers
Description: Transendothelial electrical resistance (TEER) of hCMEC/D3 monolayers on Transwell-Clear™ filters was measured using an Endohm 12 chamber and an Endohmeter (World Precision Instruments Inc., Sarasota, Fla., USA). The baseline resistance of ECM-coated inserts was always subtracted from the resistance obtained in the presence of the endothelial cultures. Primary cultures of rat brain endothelial cells were used as control.

P-gp = P-gp (Homo sapiens, UniProt P08183); assay: Drug accumulation in hCMEC/D3 cells with P-gp inhibitor; conditions: PSC-833 10 μM
P-gp, sequence (P08183 whole entry): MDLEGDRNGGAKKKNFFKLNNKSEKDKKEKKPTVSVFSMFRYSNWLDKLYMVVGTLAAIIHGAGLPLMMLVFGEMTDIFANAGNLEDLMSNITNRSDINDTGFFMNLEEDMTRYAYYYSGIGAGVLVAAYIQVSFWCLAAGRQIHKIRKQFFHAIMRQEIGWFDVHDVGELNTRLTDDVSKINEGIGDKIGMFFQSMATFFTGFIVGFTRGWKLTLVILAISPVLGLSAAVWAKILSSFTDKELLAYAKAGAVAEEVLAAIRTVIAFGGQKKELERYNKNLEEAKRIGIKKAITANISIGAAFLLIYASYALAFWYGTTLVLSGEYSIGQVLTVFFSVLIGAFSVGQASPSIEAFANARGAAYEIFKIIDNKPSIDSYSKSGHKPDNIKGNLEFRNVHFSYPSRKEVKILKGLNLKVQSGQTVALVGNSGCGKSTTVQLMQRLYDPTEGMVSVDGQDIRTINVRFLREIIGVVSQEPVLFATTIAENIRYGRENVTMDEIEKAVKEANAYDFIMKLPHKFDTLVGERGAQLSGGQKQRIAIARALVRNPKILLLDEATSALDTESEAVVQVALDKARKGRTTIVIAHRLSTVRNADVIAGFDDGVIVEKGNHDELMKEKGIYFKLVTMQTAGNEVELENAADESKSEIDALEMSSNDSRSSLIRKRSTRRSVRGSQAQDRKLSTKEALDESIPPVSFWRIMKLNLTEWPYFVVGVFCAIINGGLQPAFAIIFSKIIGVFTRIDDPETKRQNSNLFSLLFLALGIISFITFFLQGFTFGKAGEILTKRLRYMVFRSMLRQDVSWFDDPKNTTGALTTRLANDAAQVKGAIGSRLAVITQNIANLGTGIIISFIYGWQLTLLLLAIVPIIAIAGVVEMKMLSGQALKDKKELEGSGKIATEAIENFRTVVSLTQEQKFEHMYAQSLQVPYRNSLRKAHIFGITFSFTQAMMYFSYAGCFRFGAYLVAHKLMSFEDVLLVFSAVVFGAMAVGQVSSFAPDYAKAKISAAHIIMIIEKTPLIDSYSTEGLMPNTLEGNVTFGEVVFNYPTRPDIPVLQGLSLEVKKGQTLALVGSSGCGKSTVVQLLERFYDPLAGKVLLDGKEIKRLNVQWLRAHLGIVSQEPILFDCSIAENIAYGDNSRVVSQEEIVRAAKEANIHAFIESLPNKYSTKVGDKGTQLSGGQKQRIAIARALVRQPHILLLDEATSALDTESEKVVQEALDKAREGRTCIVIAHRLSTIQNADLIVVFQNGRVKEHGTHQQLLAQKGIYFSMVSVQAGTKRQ
Description: The plates were shaken during both preincubation and incubation periods to reduce the effect of the aqueous boundary layer on drug accumulation. The cells were rapidly washed three times with ice-cold PBS to eliminate the extracellular drug, and then lyed in 100 μl 0.1 M NaOH or 1% Triton-X100.

Molecule | In vivo Kin [1] [µL/s/g] | other results
CC[C@]1(O)C[C@H]2CN(CCc3c([nH]c4ccccc34)[C@@](C(=O)OC)(c3cc4c(cc3OC)N(C=O)[C@H]3[C@@](O)(C(=O)OC)[C@H](OC(C)=O)[C@]5(CC)C=CCN6CC[C@]43[C@@H]65)C2)C1 [Vincristine] | 0.06 | –
COc1cc2c(c(OC)c1OC)-c1ccc(OC)c(=O)cc1[C@@H](NC(C)=O)CC2 [Colchicine] | 0.28 | –
Lucifer Yellow | – | Permeability of Lucifer Yellow across hCMEC/D3 (hCMEC/D3 cells): 0.53±0.10 10^−3 cm/min
COc1cc2nc(N3CCN(C(=O)c4ccco4)CC3)nc(N)c2cc1OC [Prazosin] | 0.96 | –
CN1CC[C@]23c4c5ccc(O)c4O[C@H]2[C@@H](O[C@@H]2O[C@H](C(=O)O)[C@@H](O)[C@H](O)[C@H]2O)C=C[C@H]3[C@H]1C5 [M6G, morphine-6-glucuronide] | 0.03 | –
Nc1ncnc2c1nc(Sc1ccc(Cl)cc1)n2[C@@H]1O[C@@H]2COP(=O)(O)O[C@H]2[C@H]1O [chlorophenylthio-cAMP] | – | Effect on TEER value (hCMEC/D3 monolayers): failed to significantly increase
C/C=C/C[C@@H](C)C(=O)[C@H]1C(=O)N[C@@H](C(C)C)C(=O)N(C)CC(=O)N(C)[C@@H](CC(C)C)C(=O)N[C@@H](C(C)C)C(=O)N(C)[C@@H](CC(C)C)C(=O)N[C@@H](C)C(=O)N[C@H](C)C(=O)N(C)[C@@H](CC(C)C)C(=O)N(C)[C@@H](CC(C)C)C(=O)N(C)[C@@H](C(C)C)C(=O)N1C [PSC-833] | – | [3H] daunorubicin uptake by hCMEC/D3 cells (P-gp): markedly increased; calcein-AM uptake by hCMEC/D3 cells (P-gp; calcein-AM 10 μM): markedly increased; rhodamine 123 uptake by hCMEC/D3 cells (P-gp; rhodamine 123 10 μM): markedly increased
CN1C(=O)CN=C(c2ccccc2)c2cc(Cl)ccc21 [Diazepam] | 45 | –
